Read-outs that look alike come from different tables or passages of the source.
Experiments:
[1] = test system: human multiple myeloma cell line, OPM-2; experiment: Cell viability assay (OPM-2 10 FBS), CellTiter-Glo; format: cell-based
Summary of the method: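 Steps: plate cells at 3000/well in 10% FBS growth medium, add serially diluted compound, incubate 16 h at 37 °C with 5% CO2, add detection reagent and read luminescence after 25 min. A 4-parameter logistic model gives IC50.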

[2] = molecular target: recombinant human Mcl-1 (residues 171-327) / Bim interaction (Homo sapiens (Human), UniProt Q07820); experiment: biochemical; format: binding; details: read-out: Mcl-1 HTRF IC50
Chain of recombinant human Mcl-1 (residues 171-327) / Bim interaction (Q07820 171-327): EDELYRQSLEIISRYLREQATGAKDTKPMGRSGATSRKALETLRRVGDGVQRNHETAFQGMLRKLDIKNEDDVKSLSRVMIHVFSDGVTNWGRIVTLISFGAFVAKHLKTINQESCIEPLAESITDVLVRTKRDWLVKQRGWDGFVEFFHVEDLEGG

[3] = Homo sapiens, OPM-2, 16 h, read-out: OPM-2 10% FBS IC50 IP, OPM-2 cells, 10% FBS, 16 h, CellTiter-Glo
[4] = TR-FRET, Mcl-1(171-327) / biotin-Bim (51-76)
[5] = read-out: OPM-2 10% FBS IC50 IP, OPM-2 cells, 10% FBS, 16 h, CellTiter-Glo

Row | Compound | IC50 [1, 3] | IC50 [2, 4] | IC50 [1, 5] | IC50 [2]
1 | CC(C)C[C@@]1(O)/C=C/C[C@H](C)[C@@H](C)S(=O)(=O)NC(=O)c2ccc3c(c2)N(C[C@@H]2CC[C@H]21)C[C@@]1(CCCc2cc(Cl)ccc21)CO3 [Example 100220, (1S,3′R,6′R,7′R,8′E,11′S,12′R)-6-chloro-7′-hydroxy-11′,12′-dimethyl-7′-(2-methylpropyl)-3,4-dihydro-2H,15′H-spiro[naphthalene-1,22′-[20]oxa[13]thia[1,14]diazatetracyclo [14.7.2.0~3,6~.0~19,24~]pentacosa[8,16,18,24]tetraen]-15′-one 13′,13′-dioxide] | 6840 nM | 7.42 nM | – | –
2 | C[C@@H]1[C@@H](C)C/C=C/[C@](O)(c2ncnn2C)[C@@H]2CC[C@H]2CN2C[C@@]3(CCCc4cc(Cl)ccc43)COc3ccc(cc32)C(=O)NS1(=O)=O [Example 100221, (1S,3′R,6′R,7′R,8′E,11′S,12′R)-6-chloro-7′-hydroxy-11′,12′-dimethyl-7′-(1-methyl-1H-1,2,4-triazol-5-yl)-3,4-dihydro-2H,15′H-spiro[naphthalene-1,22′-[20]oxa[13]thia[1,14]diazatetracyclo [14.7.2.0~3,6~.0~19,24~]pentacosa[8,16,18,24]tetraen]-15′-one 13′,13′-dioxide] | 776 nM | 0.525 nM | – | –
3 | C[C@@H]1[C@@H](C)CCC[C@](O)(c2nccn2C)[C@@H]2CC[C@H]2CN2C[C@@]3(CCCc4cc(Cl)ccc43)COc3ccc(cc32)C(=O)NS1(=O)=O [Example 100223, (1S,3′R,6′R,7′R,11′S,12′R)-6-chloro-7′-hydroxy-11′,12′-dimethyl-7′-(1-methyl-1H-imidazol-2-yl)-3,4-dihydro-2H,15′H-spiro[naphthalene-1,22′-[20]oxa[13]thia[1,14]diazatetracyclo [14.7.2.0~3,6~.0~19,24~]pentacosa[16,18,24]trien]-15′-one 13′,13′-dioxide] | 2150 nM | 1.41 nM | – | –
4 | CC(C)C[C@]1(O)/C=C/C[C@H](C)[C@@H](C)S(=O)(=O)NC(=O)c2ccc3c(c2)N(C[C@@H]2CC[C@H]21)C[C@@]1(CCCc2cc(Cl)ccc21)CO3 [Example 100224, (1S,3′R,6′R,7′S,8′E,11′S,12′R)-6-chloro-7′-hydroxy-11′,12′-dimethyl-7′-(2-methylpropyl)-3,4-dihydro-2H,15′H-spiro[naphthalene-1,22′-[20]oxa[13]thia[1,14]diazatetracyclo [14.7.2.0~3,6~.0~19,24~]pentacosa[8,16,18,24]tetraen]-15′-one 13′,13′-dioxide] | 385 nM | 0.345 nM | – | –
5 | COC[C@]1(OC)CCC[C@H](C)[C@@H](C)S(=O)(=O)NC(=O)c2ccc3c(c2)N(C[C@@H]2CC[C@H]21)C[C@@]1(CCCc2cc(Cl)ccc21)CO3 [Example 100225, (1S,3′R,6′R,7′S,11′S,12′R)-6-chloro-7′-methoxy-7′-(methoxymethyl)-11′,12′-dimethyl-3,4-dihydro-2H,15′H-spiro[naphthalene-1,22′-[20]oxa[13]thia[1,14]diazatetracyclo [14.7.2.0~3,6~.0~19,24~]pentacosa[16,18,24]trien]-15′-one 13′,13′-dioxide] | – | 0.639 nM | 882 nM | –
6 | C[C@@H]1[C@@H](C)CCC[C@@](O)(c2nccn2C)[C@@H]2CC[C@H]2CN2C[C@@]3(CCCc4cc(Cl)ccc43)COc3ccc(cc32)C(=O)NS1(=O)=O [Example 100226, (1S,3′R,6′R,7′S,11′S,12′R)-6-chloro-7′-hydroxy-11′,12′-dimethyl-7′-(1-methyl-1H-imidazol-2-yl)-3,4-dihydro-2H,15′H-spiro[naphthalene-1,22′-[20]oxa[13]thia[1,14]diazatetracyclo [14.7.2.0~3,6~.0~19,24~]pentacosa[16,18,24]trien]-15′-one 13′,13′-dioxide] | 849 nM | 1.4 nM | – | –
7 | C[C@@H]1[C@@H](C)CCC[C@]2(OC[C@@H](N(C)C)CO2)[C@@H]2CC[C@H]2CN2C[C@@]3(CCCc4cc(Cl)ccc43)COc3ccc(cc32)C(=O)NS1(=O)=O [Example 100227] | 191 nM | 0.423 nM | – | –
8 | C[C@@H]1[C@@H](C)CCC[C@@]2(CCO2)[C@@H]2CC[C@H]2CN2C[C@@]3(CCCc4cc(Cl)ccc43)COc3ccc(cc32)C(=O)NS1(=O)=O [Example 100228, (1S,3′R,6′R,7′R,11′S,12′R)-6-chloro-11′,12′-dimethyl-3,4-dihydro-2H,15′H-dispiro[naphthalene-1,22′-[20]oxa[13]thia[1,14]diazatetracyclo [14.7.2.0~3,6~.0~19,24~]pentacosa[16,18,24]triene-7′,2″-oxetan]-15′-one 13′,13′-dioxide] | 3300 nM | 0.558 nM | – | –
9 | CO[C@@]1(c2nccn2C)CCC[C@H](C)[C@@H](C)S(=O)(=O)NC(=O)c2ccc3c(c2)N(C[C@@H]2CC[C@H]21)C[C@@]1(CCCc2cc(Cl)ccc21)CO3 [Example 100230, (1S,3′R,6′R,7′S,11′S,12′R)-6-chloro-7′-methoxy-11′,12′-dimethyl-7′-(1-methyl-1H-imidazol-2-yl)-3,4-dihydro-2H,15′H-spiro[naphthalene-1,22′-[20]oxa[13]thia[1,14]diazatetracyclo [14.7.2.0~3,6~.0~19,24~]pentacosa[16,18,24]trien]-15′-one 13′,13′-dioxide] | 544 nM | 0.473 nM | – | –
10 | CCC[C@]1(O)/C=C/C[C@H](C)[C@@H](C)S(=O)(=O)NC(=O)c2ccc3c(c2)N(C[C@@H]2CC[C@H]21)C[C@@]1(CCCc2cc(Cl)ccc21)CO3 [Example 100232, (1S,3′R,6′R,7′S,8′E,11′S,12′R)-6-chloro-7′-hydroxy-11′,12′-dimethyl-7′-propyl-3,4-dihydro-2H,15′H-spiro[naphthalene-1,22′-[20]oxa[13]thia[1,14]diazatetracyclo [14.7.2.0~3,6~.0~19,24~]pentacosa[8,16,18,24]tetraen]-15′-one 13′,13′-dioxide] | 389 nM | – | – | 0.152 nM
11 | C[C@@H]1[C@@H](C)C/C=C/[C@@]2(COCCO2)[C@@H]2CC[C@H]2CN2C[C@@]3(CCCc4cc(Cl)ccc43)COc3ccc(cc32)C(=O)NS1(=O)=O [Example 100233, (2S,3′R,6′R,8′E,11′S,12′R,22′S)-6″-chloro-11′,12′-dimethyl-3″,4″-dihydro-2″H,15′H-dispiro[1,4-dioxane-2,7′-[20]oxa[13]thia[1,14]diazatetracyclo [14.7.2.0~3,6~.0~19,24~]pentacosa[8,16,18,24]tetraene-22′,1″-naphthalen]-15′-one 13′,13′-dioxide] | – | 1.04 nM | 257 nM | –
12 | CC[C@]1(OC)/C=C/C[C@H](C)[C@@H](C)S(=O)(=O)NC(=O)c2ccc3c(c2)N(C[C@@H]2CC[C@H]21)C[C@@]1(CCCc2cc(Cl)ccc21)CO3 [Example 100234, (1S,3′R,6′R,7′S,8′E,11′S,12′R)-6-chloro-7′-ethyl-7′-methoxy-11′,12′-dimethyl-3,4-dihydro-2H,15′H-spiro[naphthalene-1,22′-[20]oxa[13]thia[1,14]diazatetracyclo [14.7.2.0~3,6~.0~19,24~]pentacosa[8,16,18,24]tetraen]-15′-one 13′,13′-dioxide] | 449 nM | 0.237 nM | – | –
13 | C[C@@H]1[C@@H](C)C/C=C/[C@@](O)(C#N)[C@@H]2CC[C@H]2CN2C[C@@]3(CCCc4cc(Cl)ccc43)COc3ccc(cc32)C(=O)NS1(=O)=O [Example 100235, (1S,3′R,6′R,7′S,8′E,11′S,12′R)-6-chloro-7′-hydroxy-11′,12′-dimethyl-15′-oxo-3,4-dihydro-2H-spiro[naphthalene-1,22′-[20]oxa[13]thia[1,14]diazatetracyclo [14.7.2.0~3,6~.0~19,24~]pentacosa[8,16,18,24]tetraene]-7′-carbonitrile 13′,13′-dioxide] | 644 nM | 1.34 nM | – | –
14 | CCC[C@]1(OC)/C=C/C[C@H](C)[C@@H](C)S(=O)(=O)NC(=O)c2ccc3c(c2)N(C[C@@H]2CC[C@H]21)C[C@@]1(CCCc2cc(Cl)ccc21)CO3 [Example 100236, (1S,3′R,6′R,7′S,8′E,11′S,12′R)-6-chloro-7′-methoxy-11′,12′-dimethyl-7′-propyl-3,4-dihydro-2H,15′H-spiro[naphthalene-1,22′-[20]oxa[13]thia[1,14]diazatetracyclo [14.7.2.0~3,6~.0~19,24~]pentacosa[8,16,18,24]tetraen]-15′-one 13′,13′-dioxide] | 933 nM | 1.1 nM | – | –
15 | C[C@@H]1[C@@H](C)C/C=C/[C@](O)(C#N)[C@@H]2CC[C@H]2CN2C[C@@]3(CCCc4cc(Cl)ccc43)COc3ccc(cc32)C(=O)NS1(=O)=O [Example 100237, (1S,3′R,6′R,7′R,8′E,11′S,12′R)-6-chloro-7′-hydroxy-11′,12′-dimethyl-15′-oxo-3,4-dihydro-2H-spiro[naphthalene-1,22′-[20]oxa[13]thia[1,14]diazatetracyclo [14.7.2.0~3,6~.0~19,24~]pentacosa[8,16,18,24]tetraene]-7′-carbonitrile 13′,13′-dioxide] | 996 nM | 1.74 nM | – | –
16 | C[C@@H]1[C@@H](C)CCC[C@@](O)(C2SCCCS2)[C@@H]2CC[C@H]2CN2C[C@@]3(CCCc4cc(Cl)ccc43)COc3ccc(cc32)C(=O)NS1(=O)=O [Example 100238, (1S,3′R,6′R,7′S,11′S,12′R)-6-chloro-7′-(1,3-dithian-2-yl)-7′-hydroxy-11′,12′-dimethyl-3,4-dihydro-2H,15′H-spiro[naphthalene-1,22′-[20]oxa[13]thia[1,14]diazatetracyclo [14.7.2.0~3,6~.0~19,24~]pentacosa[16,18,24]trien]-15′-one 13′,13′-dioxide] | 747 nM | 0.474 nM | – | –
